Test results as given in patent publication US20250177412A1, “SMALL-MOLECULE INHIBITORS TARGETING THE BOB1/OCT1 INTERFACE” (NANTES UNIVERSITE, priority 2022, published 2025).

Assays:
[1] = system: BOB1/OCT1-mediated transcription; test: Luciferase reporter assay (transient transfection, 6xPORE-luc); assay type: cell-based, human; details: 10 μM in the culture medium
Protocol: FIGS. 1A-C are a combination of graphs showing that compound 005 inhibits BOB1/OCT1-mediated transcription in vitro. HEC293Ea1 cells, known to express endogenous OCT1, were co-transfected with […] reporter, pEV-OBF1 (BOB1) effector, and pCMV-β-gal calibrator plasmids. Luciferase and β-galactosidase activities were measured 48 hours after transfection. The 100% luciferase activity was set as activity in presence of vehicle (10 μM DMSO). […] All experiments are performed at least in triplicates. Bars indicate the mean±SEM. * P<0.05, ** P<0.01, *** P<0.001, **** P<0.0001.
The HEK293E1a cells were seeded at density 1.2×10^4 per well on 48-well plate in DMEM medium containing 10% fetal calf serum. After 24 hours cells were transfected with plasmid mix (300 ng/well) containing specified amounts of the p6×PORE-luc reporter, pEV-OBF1 and pCG-Oct1 effector, pBluescript II KS+ carrier, and pCMV-βgal (for standardization) as previously described. The transfections were carried out in three biological replicates, using Polyethylenimine (PEI 25K, Polysciences Inc.) at the ratio 2:1 to DNA. After 48 hours, cells were washed with PBS, lysed, and measured for luciferase activity, using the Bright-Glo luciferase assay system (Promega), and for β-galactosidase activity in a standard assay.
BOB1 has been described as a coactivator acting in cooperation with the POU-domain proteins OCT1 and OCT2 bound to distinct DNA-motifs either in monomeric or dimeric configurations. […] As an initial functional assay, we examined the ability of the compounds according to the present invention to affect BOB1-OCT1-PORE-mediated transcriptional activation in transient transfection luciferase assay. To this end, we made use of previously generated 6×PORE-luc and reporter plasmid, in which hexamers of the PORE were cloned upstream of the thymidine kinase (tk) minimal promoter and luciferase gene. […] Furthermore, the addition of a plasmid expressing exogenous OCT1 exerted an inhibitory effect on both basal and BOB1-mediated transcription (data not shown). This observation is likely due to the fact that HEK293 cells, like all other mammalian cell types, express OCT1, and further addition of exogenous OCT1 in these cells shifts the BOB1/OCT1 equilibrium out of optimal range, resulting in squelching effect, and in our experimental setup, in about 3-fold stimulation, as compared to that by endogenous OCT1 alone (FIG. 1A). […] Compound 005 was selected for further detailed investigation.

[2] = target: OCT1 (endogenous) + BOB1 (transfected) (Homo sapiens) (UniProt P14859+Q16633); test: cell_activity; details: BOB1 stimulation over endogenous OCT1 alone, HEK293 luciferase; attenuated by compounds 004, 005, 006 at 10 uM
Sequence of OCT1 (endogenous) + BOB1 (transfected) (Homo sapiens) (P14859 other isoform, or with tags, fused parts or gaps, chain 1 of 2): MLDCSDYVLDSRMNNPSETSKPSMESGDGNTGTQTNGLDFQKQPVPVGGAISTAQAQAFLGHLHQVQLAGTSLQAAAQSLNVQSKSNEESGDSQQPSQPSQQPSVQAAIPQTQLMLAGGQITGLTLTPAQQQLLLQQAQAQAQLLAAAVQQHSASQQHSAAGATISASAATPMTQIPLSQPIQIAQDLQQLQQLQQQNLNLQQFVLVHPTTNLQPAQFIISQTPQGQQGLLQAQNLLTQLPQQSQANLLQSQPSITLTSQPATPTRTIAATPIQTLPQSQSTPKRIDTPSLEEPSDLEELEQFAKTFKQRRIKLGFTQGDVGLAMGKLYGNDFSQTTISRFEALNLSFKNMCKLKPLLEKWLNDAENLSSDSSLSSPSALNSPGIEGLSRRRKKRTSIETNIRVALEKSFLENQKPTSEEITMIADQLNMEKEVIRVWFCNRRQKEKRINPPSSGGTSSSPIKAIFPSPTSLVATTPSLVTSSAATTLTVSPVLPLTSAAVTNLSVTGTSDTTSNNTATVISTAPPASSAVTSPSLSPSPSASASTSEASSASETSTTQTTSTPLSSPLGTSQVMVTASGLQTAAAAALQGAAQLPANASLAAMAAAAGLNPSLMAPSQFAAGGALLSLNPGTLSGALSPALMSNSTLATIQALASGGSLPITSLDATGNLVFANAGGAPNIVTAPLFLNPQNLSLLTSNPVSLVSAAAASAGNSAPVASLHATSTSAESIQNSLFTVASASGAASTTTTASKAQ
Sequence of OCT1 (endogenous) + BOB1 (transfected) (Homo sapiens) (Q16633 whole entry, chain 2 of 2): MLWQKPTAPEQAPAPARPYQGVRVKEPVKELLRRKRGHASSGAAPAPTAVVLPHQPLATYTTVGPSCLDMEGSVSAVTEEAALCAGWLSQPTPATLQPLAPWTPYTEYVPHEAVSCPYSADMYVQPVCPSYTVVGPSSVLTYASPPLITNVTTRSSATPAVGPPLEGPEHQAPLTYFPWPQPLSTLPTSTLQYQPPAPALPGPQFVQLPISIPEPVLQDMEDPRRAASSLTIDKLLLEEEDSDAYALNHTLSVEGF

BOB1/OCT1-driven transcription (relative luciferase activity) [1]	Molecule	activity [2] [fold]
significantly attenuated	O=C(O)CCNc1nc(NCCCc2ccc(F)cc2)nc(N2CCCC(C(=O)N3CCC(Cc4ccccc4)CC3)C2)n1 (stereo not drawn) [compound 006, 3-((4-(3-(4-benzylpiperidine-1-carbonyl)piperidin-1-yl)-6-((3-(4-fluorophenyl)propyl)amino)-1,3,5-triazin-2-yl)amino)propanoic acid]	–
significantly attenuated	O=C(Nc1ccc(Br)c(C(F)(F)F)c1)C1CCCCN1c1nc(NCc2cccc(F)c2)nc(N(CCO)CCO)n1 (stereo not drawn) [compound 004, 1-(4-(bis(2-hydroxyethyl)amino)-6-((3-fluorobenzyl)amino)-1,3,5-triazin-2-yl)-N-(4-bromo-3-(trifluoromethyl)phenyl)piperidine-2-carboxamide]	–
–	6xPORE-tk-luc reporter	3
